The numbers were not newly measured in patent publication US20090214619A1, “IMPLANT FOR INTRAOCULAR DRUG DELIVERY” (THERAKINE LTD., priority 2004, published 2009), which cites them from elsewhere.

For data set [1], the system named is degenerative diseases such as choroidal neovascularization, macular edema, macular degeneration, branch retinal vein occlusion. As to conditions: patients with choroidal neovascularization.
The next data set concerns HSP induced uveitis. As to conditions: rats with HSP induced uveitis; decreased from 68% without treatment.

With Infliximab: chimeric Anti TNF Mab, the effect on vision result in data set [1] is on record as “improve vision”.

B1: IL-4: pleiotropic cytokine produced by activated T cells, mast cells, and basophiles (protein, UniProt P05112 25-153, looked up)
Interleukin-4: HKCDITLQEIIKTLNSLTEQKTLCTELTVTDIFAASKNTTEKETFCRAATVLRQFYSHHEKDTRCLGATAQQFHRHKQLIRFLKRLDRNLWGLAGLNSCPVKEANQSTLENFLERLKTIMREKYSKCSS
With B1, the development of uveitis with HSP induced uveitis is 30.4%.
